Counter-ions that a name gives are not always drawn. Like-named read-outs stand apart in the source and are kept apart here.
Legend:
mGFAP protein = experiment: cell-based GFAP protein level assay (cell-based ELISA) in 172.9 cells; parameters: species or system mouse; conditions: for suppression in the protein assay: secondary screen, 10 μM, 48 hours; for % GFAP reductions, mGFAP protein via ELISA: tertiary screen, 48 hr exposure, at the MTDcc
[1] = test system: 2.2 kb human GFAP promoter; experiment: hGFAP promoter luciferase activity assay in 172.9 cells (primary astrocytes from dual luciferase transgenic mice); assay type: cell-based; conditions: for suppression in the promoter assay: secondary screen, 10 μM, 48 hours; for % GFAP reductions, luciferace expression from hGFAP promoter: tertiary screen, 48 hr exposure, at the MTDcc
Description: Cell-based assays were performed as four different screens using enriched cortical primary astrocyte cultures developed from transgenic mice expressing both firefly and Renilla luciferase reporter genes were generated. Briefly, the'firefly luciferase was placed under the control of a 2.2 kb human GFAP promoter to monitor GFAP transcription, and the Renilla luciferase was placed under the control of a 0.5 kb human GAPDH (glyceraldehyde 3-phosphate dehydrogenase) promoter to monitor transcription of a housekeeping gene for signal normalization. See section B, below for more detail regarding the development of transgenic mouse strains. Cells used in the following examples (e.g., the cortical primary astrocyte cells termed “172.9 cells,” described below) were developed from the transgenic mice described in section B.
Briefly, the cortices from individual pups were freed of meninges and placed into DMEM (Gibco) without serum, mechanically disassociated into single cells, suspended in medium containing DMEM supplemented with 10% fetal bovine serum (FBS; Hyclone), 100 U/ml penicillin, 100 μg/ml streptomycin (Gibco), seeded into T25 flasks (one brain per flask), and maintained in a humidified 5% CO2 atmosphere at 37° C. […] Medium was changed every 3 days. At 14-16 days in vitro (DIV), the flasks were shaken overnight at 200 rpm to remove oligodendrocytes and microglia. […] The cells were then suspended in DMEM with 10% FBS and plated (“passage 2”) on either 35 mm dishes, […], or 96-well plates (Corning) as needed. Cells were grown for varying days in vitro (DIV) at passage 2 and then used for various experiments. Tissue culture dishes and plates were pre-coated with 100 μg/ml poly-L-lysine for 1 h in a humidified 5% CO2 atmosphere at 37° C., and then allowed to air dry. […] Cell density was measured with the Vi-CELL cell counter (Beckman Coulter) or hemocytometer by the trypan-blue exclusion method. For simplicity, cells are referred to as “172.9 cells.”
Briefly, 172.9 cells were plated on poly-L coated white 96-well plates at a density of 5000 cells per well, in 100 μl DMEM with 10% FBS. At twenty-four hours, cells were exposed to the different compounds at a final concentration of 10 μM (diluted from a 50 mM stock) prepared in new medium (DMEM with 10% FBS). […] After exposure to compounds, luciferase activity in the primary and secondary screenings was determined by adding 30 μl of Bright-Glo™ reagent (Promega) to the 100 μl of media and cells of each well in the white 96-well plates with the Biomek® FX liquid handler (Beckman Coulter). After incubation for 1 minute at room temperature, signals were measured with the Safire 2 plate reader using Magellan™ software (Tecan). Other specific methods and equipment are known in the art and can be used to measure luciferase expression levels. This assay method is termed the “hGFAP promoter luciferase activity assay.” A reduction in luciferase expression as determined by this assay is termed “hGFAP promoter luciferase reduction.” For some assays that were aimed at confirming results of the initial screens, the same amount of Bright-Glo™ reagent was applied to each well in 96-well plates and signals were detected with the GloRunner™ Microplate Luminometer (Turner Biosystems) using the Dual-Glo® luciferase assay according to the manufacturer's recommendations (E1910, Promega).
In the secondary screen, cells were plated in a 96-well plate as described above for the primary screen.
Some compounds were unavailable outside of the library collections, and could not be further tested.
Each compound and concentration was analyzed in quadruplicate wells.
Compounds were tested at eight different concentrations ranging from 0-20 μM. In addition, GFAP protein levels were measured using a sandwich ELISA, which has greater sensitivity and is more accurate than the cell-based ELISA used in the primary screens.

172.9 cells = experiment: cell viability (CellTiter-Glo) / MTDcc in 172.9 cells
Description: Criterion for acceptable viability was >70% survival.
Cell viability was determined as follows. After exposure to each compound (duplicate wells per compound), 50 μl of CellTitier-Glo Luminescent Cell Viability Assay reagent (G7571, Promega) was added to the 100 μl of media present in each well, and the luminescent signal (reflecting intracellular ATP level) was detected with either a Victor 3-V plate reader (Perkin Elmer) or GloRunner Microplate Luminometer (Turner Biosystems). Cell viability was expressed as a percent of non-treated control cells.
A dose-response curve was created for each compound (0.1, 0.5, 1, 5, 10, 15, 20 μM) using 48 hr exposures. The MTDcc (“maximum tolerated dose—cell culture”) indicates the highest concentration that retained at least 70% cell viability. Each compound and concentration was analyzed in quadruplicate wells. EGCDG: epigallocatechin 3,5-digallate; NPPB: 5-nitro-2-phenylproplyaminobenzoic acid. As used herein, MTDcc refers to the MTD as determined by this assay under the above conditions.

[2] = tertiary screen, 48 hr exposure, 0.1-20 μM, highest concentration that retained at least 70% cell viability

CC1(C)C(=O)C=C[C@]2(C)[C@H]3CC[C@@]4(C)[C@H](c5ccoc5)OC(=O)[C@H]5O[C@]54[C@]3(C)C=C[C@@H]12 [7-desacetoxy-6,7-dehydrogedunin]
suppression in the protein assay (mGFAP protein): significant suppression
suppression in the promoter assay [1]: significant suppression

Cc1cc(O)c2c(c1)C(=O)c1cccc(O)c1C2=O [chrysophanol]
% GFAP reductions, mGFAP protein via ELISA (mGFAP protein): 18.6%
% GFAP reductions, luciferace expression from hGFAP promoter [1]: 66%
MTDcc (172.9 cells; [2]): 12.5 µM

CCCCC(CC)CN1CN(CC(CC)CCCC)CC(C)(N)C1 (centres unmarked) [hexetidine]
% GFAP reductions, mGFAP protein via ELISA (mGFAP protein): 6.4%
% GFAP reductions, luciferace expression from hGFAP promoter [1]: 26%
MTDcc (172.9 cells; mouse, 48 h): >20 µM

CC(=O)OCC(=O)[C@@]12OC(C)(C)O[C@@H]1C[C@H]1[C@@H]3C[C@H](F)C4=CC(=O)C=C[C@]4(C)[C@@]3(F)[C@@H](O)C[C@@]12C [fluccinonide]
% GFAP reductions, mGFAP protein via ELISA (mGFAP protein): −2.2%
% GFAP reductions, luciferace expression from hGFAP promoter [1]: 28%
MTDcc (172.9 cells; [2]): >20 µM

CCC(=O)O[C@]1(C(=O)CCl)[C@@H](C)C[C@H]2[C@@H]3CCC4=CC(=O)C=C[C@]4(C)[C@@]3(F)[C@@H](O)C[C@@]21C [clobetasol propionate]
% GFAP reductions, mGFAP protein via ELISA (mGFAP protein): −7.6%
% GFAP reductions, luciferace expression from hGFAP promoter [1]: 25%
MTDcc (172.9 cells; mouse, 48 h): >20 µM

CC/C(=C(\c1ccccc1)c1ccc(OCCN(C)C)cc1)c1ccccc1 [tamoxifen citrate]
% GFAP reductions, mGFAP protein via ELISA (mGFAP protein): 21.6%
% GFAP reductions, luciferace expression from hGFAP promoter [1]: 52%
MTDcc (172.9 cells; mouse, 48 h): 7.5 µM

CCOC(=O)C1=C(COCCN)NC(C)=C(C(=O)OC)C1c1ccccc1Cl (centres unmarked) [amlodipine]
% GFAP reductions, luciferace expression from hGFAP promoter [1]: 44%
MTDcc (172.9 cells; [2]): 12.5 µM

CCCCCCCCCCCC1=C(O)C(=O)C=C(O)C1=O [embelin]
% GFAP reductions, mGFAP protein via ELISA (mGFAP protein): 10.8%
% GFAP reductions, luciferace expression from hGFAP promoter [1]: 37%
MTDcc (172.9 cells; mouse, 48 h): 7.5 µM

O=C1CCCN1CC#CCN1CCCC1 [oxotremorine]
% GFAP reductions, mGFAP protein via ELISA (mGFAP protein): 2.7%
% GFAP reductions, luciferace expression from hGFAP promoter [1]: 16%
MTDcc (172.9 cells; [2]): >20 µM

pyrogallin
% GFAP reductions, mGFAP protein via ELISA (mGFAP protein): 3.3%
% GFAP reductions, luciferace expression from hGFAP promoter [1]: 22%
MTDcc (172.9 cells; [2]): >20 µM

CCOC(=O)C1=C(COCCN)NC(C)=C(C(=O)OC)C1c1ccccc1Cl (centres unmarked) [amlodipine besylate]
suppression in the protein assay (mGFAP protein): significant suppression
suppression in the promoter assay [1]: significant suppression

CC(NCCc1ccc(O)cc1)C(O)c1ccc(O)cc1 (centres unmarked) [ritodrine]
% GFAP reductions, mGFAP protein via ELISA (mGFAP protein): 5.2%
% GFAP reductions, luciferace expression from hGFAP promoter [1]: 16%
MTDcc (172.9 cells; mouse, 48 h): >20 µM

C=C1CC[C@H](O)C/C1=C/C=C1\CCC[C@]2(C)[C@@H]([C@H](C)CCCC(C)C)CC[C@@H]12 [colecalciferol]
% GFAP reductions, mGFAP protein via ELISA (mGFAP protein): −4.9%
% GFAP reductions, luciferace expression from hGFAP promoter [1]: 24%
MTDcc (172.9 cells; [2]): >20 µM

CN1CCC(=C2c3ccccc3CC(=O)c3sccc32)CC1 [ketotifen]
% GFAP reductions, mGFAP protein via ELISA (mGFAP protein): 8.6%
% GFAP reductions, luciferace expression from hGFAP promoter [1]: 25%
MTDcc (172.9 cells; mouse, 48 h): >20 µM

COC(=O)[C@H](O)[C@H]1C(C)(C)[C@H](OC(C)=O)[C@@H]2CC3=C4CC(=O)O[C@@H](c5ccoc5)[C@]4(C)CC[C@@H]3[C@@]1(C)C2=O [swietenolide-3-acetate]
% GFAP reductions, mGFAP protein via ELISA (mGFAP protein): 0.7%
% GFAP reductions, luciferace expression from hGFAP promoter [1]: 8%
MTDcc (172.9 cells): >20 µM

COP(=S)(OC)SCn1nnc2ccccc2c1=O [azinphos methyl]
% GFAP reductions, mGFAP protein via ELISA (mGFAP protein): 4.7%
% GFAP reductions, luciferace expression from hGFAP promoter [1]: 18%
MTDcc (172.9 cells; [2]): >20 µM

C[C@]12CC[C@@H]3c4ccc(OC(=O)c5ccccc5)cc4CC[C@H]3[C@@H]1CC[C@@H]2O [estradiol benzoate]
% GFAP reductions, mGFAP protein via ELISA (mGFAP protein): −2.8%
% GFAP reductions, luciferace expression from hGFAP promoter [1]: 26%
MTDcc (172.9 cells; mouse, 48 h): >20 µM

CC(C)(C)c1ccc(C(O)CCCN2CCC(C(O)(c3ccccc3)c3ccccc3)CC2)cc1 (centres unmarked) [terfenadine]
% GFAP reductions, luciferace expression from hGFAP promoter [1]: 14%
MTDcc (172.9 cells; mouse, 48 h): 2.5 µM

CC(C)(CO)[C@@H](O)C(=O)NCCC(=O)O [pantothenic acid]
% GFAP reductions, mGFAP protein via ELISA (mGFAP protein): −3.5%
% GFAP reductions, luciferace expression from hGFAP promoter [1]: 6%
MTDcc (172.9 cells; mouse, 48 h): >20 µM

NC[C@H]1O[C@H](O[C@H]2[C@H](O)[C@@H](O)[C@H](N)C[C@@H]2N)[C@H](N)[C@@H](O)[C@@H]1O [neamine]
% GFAP reductions, mGFAP protein via ELISA (mGFAP protein): −0.8%
% GFAP reductions, luciferace expression from hGFAP promoter [1]: 5%
MTDcc (172.9 cells; [2]): >20 µM

O=C(O)c1cc([N+](=O)[O-])ccc1NCCCc1ccccc1 [5-nitro-2-phenylproplyaminobenzoic acid]
% GFAP reductions, mGFAP protein via ELISA (mGFAP protein): 0.4%
% GFAP reductions, luciferace expression from hGFAP promoter [1]: 16%
MTDcc (172.9 cells; [2]): >20 µM

Cc1nc2sccn2c(=O)c1CCN1CCC(=C(c2ccc(F)cc2)c2ccc(F)cc2)CC1 [ritanserin]
% GFAP reductions, mGFAP protein via ELISA (mGFAP protein): 9.6%
% GFAP reductions, luciferace expression from hGFAP promoter [1]: 29%
MTDcc (172.9 cells; mouse, 48 h): 12.5 µM

CN(C)/N=N/c1[nH]cnc1C(N)=O [decarbazine]
% GFAP reductions, mGFAP protein via ELISA (mGFAP protein): 2.4%
% GFAP reductions, luciferace expression from hGFAP promoter [1]: 7%
MTDcc (172.9 cells; mouse, 48 h): >20 µM

OCCN1CCN(CCCN2c3ccccc3Sc3ccc(C(F)(F)F)cc32)CC1 [fluphenazine]
% GFAP reductions, mGFAP protein via ELISA (mGFAP protein): −6.7%
% GFAP reductions, luciferace expression from hGFAP promoter [1]: 23%
MTDcc (172.9 cells; mouse, 48 h): 7.5 µM

O=c1c(-c2cc(O)c(O)c(O)c2)coc2cc(O)c(O)c(O)c12 [irigenol]
suppression in the protein assay (mGFAP protein): significant suppression
% GFAP reductions, mGFAP protein via ELISA (mGFAP protein): 1.8%
suppression in the promoter assay [1]: significant suppression
% GFAP reductions, luciferace expression from hGFAP promoter [1]: 28%
MTDcc (172.9 cells; mouse, 48 h): >20 µM

CCOC(=O)NC1=C(N2CC2)C(=O)C(NC(=O)OCC)=C(N2CC2)C1=O [diaziquone]
suppression in the protein assay (mGFAP protein): significant suppression
% GFAP reductions, mGFAP protein via ELISA (mGFAP protein): 9.5%
suppression in the promoter assay [1]: significant suppression
% GFAP reductions, luciferace expression from hGFAP promoter [1]: 86%
MTDcc (172.9 cells; mouse, 48 h): >20 µM

O=C(N[C@H](CO)[C@H](O)c1ccc([N+](=O)[O-])cc1)C(Cl)Cl [chloramphenicol]
% GFAP reductions, mGFAP protein via ELISA (mGFAP protein): 0.9%
% GFAP reductions, luciferace expression from hGFAP promoter [1]: 16%
MTDcc (172.9 cells; mouse, 48 h): >20 µM

COc1ccc2c(c1)O[C@@H]1COc3cc(OC)c(OC)cc3[C@@H]1C2=O [mundoserone]
suppression in the protein assay (mGFAP protein): significant suppression
% GFAP reductions, mGFAP protein via ELISA (mGFAP protein): 1.6%
suppression in the promoter assay [1]: significant suppression
% GFAP reductions, luciferace expression from hGFAP promoter [1]: 50%
MTDcc (172.9 cells; mouse, 48 h): >20 µM

CC(=O)Nc1ccc(OC(=O)c2ccccc2O)cc1 [4-acetamidophenyl salicylate]
% GFAP reductions, mGFAP protein via ELISA (mGFAP protein): 8.6%
% GFAP reductions, luciferace expression from hGFAP promoter [1]: 17%
MTDcc (172.9 cells; mouse, 48 h): >20 µM

COc1ccc(C(=O)O)cc1OC [veratic acid]
% GFAP reductions, mGFAP protein via ELISA (mGFAP protein): −0.8%
% GFAP reductions, luciferace expression from hGFAP promoter [1]: 6%
MTDcc (172.9 cells; [2]): >20 µM
